We go through 25 compounds from patent US20250154686A1, “COMPOUND LIBRARY” (CHUGAI SEIYAKU KABUSHIKI KAISHA, priority 2021, published 2025).

This experiment concerns the target T1, Bcl-2 protein (Recombinant Human Bcl-2 Protein) (Homo sapiens, UniProt P10415).
T1 construct: purchased Novus Biologicals NBP2-34889
As to the kind of experiment: AS-MS evaluation of binding of the Example 4 mixture library (1200 compounds/well) to Bcl-2, ASMS ratio (%). An outline of the steps:
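ASMS ratio (%) derived from reverse-phase LC/MS of three samples: Bcl-2 (20 μM) incubation after SEC, protein-free standard without SEC, and protein-free blank after SEC. Compounds were pooled at 1200/well, 20 nM each, incubated 1 h, 23 °C, dark, in Tris-HCl pH 7.4 buffer with Tween-20 and DTT.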

[1] abbreviates: AS-MS, Example 4 mixture library, Bcl-2, replicate n = 1.
Where [2] appears, read: AS-MS, Example 4 mixture library, Bcl-2, replicate n = 2.
The mark [3] stands for this setting: AS-MS, mixture of 1200 compounds/well, Bcl-2 protein, replicate n = 1.
[4] abbreviates: AS-MS, mixture of 1200 compounds/well, Bcl-2 protein, replicate n = 2.
Where [5] appears, read: replicate n = 1, mixture library, value belongs to the MS peak assigned to the compound.
[6] abbreviates: replicate n = 2, mixture library, value belongs to the MS peak assigned to the compound.

T1 sequence (P10415 whole entry): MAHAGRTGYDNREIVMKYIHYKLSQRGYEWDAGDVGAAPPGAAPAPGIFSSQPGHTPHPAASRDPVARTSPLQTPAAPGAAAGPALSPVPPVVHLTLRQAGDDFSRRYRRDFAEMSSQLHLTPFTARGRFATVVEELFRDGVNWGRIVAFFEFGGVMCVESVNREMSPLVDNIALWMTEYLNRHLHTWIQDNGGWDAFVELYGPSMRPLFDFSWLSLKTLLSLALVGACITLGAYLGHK

As to `CCOc1cncc(-c2ccc(C(=O)N3CCN(c4ccc(C(=O)NS(=O)(=O)c5ccc(NCCSc6ccccc6)c(C(F)(F)F)c5)nn4)CC3)cc2C)c1` [Compound B2R004-01, 6-[4-[4-(5-Ethoxypyridin-3-yl)-3-methylbenzoyl]piperazin-1-yl]-N-[4-(2-phenylsulfanylethylamino)-3-(trifluoromethyl)phenyl]sulfonylpyridazine-3-carboxamide], the “ASMS ratio (%) n = 1” value under setting [1] turned out to be 0.0%. Besides, the “ASMS ratio (%) n = 2” value under setting [2] is 0.0%.
For `CCOc1cccc(-c2ccc(CN3CCN(c4ccc(C(=O)NS(=O)(=O)c5ccc(NCCSc6ccccc6)c(C(F)(F)F)c5)nn4)CC3)cc2C)c1` [Compound B2R073-01, 6-[4-[[4-(3-Ethoxyphenyl)-3-methylphenyl]methyl]piperazin-1-yl]-N-[4-(2-phenylsulfanylethylamino)-3-(trifluoromethyl)phenyl]sulfonylpyridazine-3-carboxamide], the “ASMS ratio (%) n = 1” value under setting [1] is 24.0%. Further, the “ASMS ratio (%) n = 2” value under setting [2] is listed as 0.0%.
Consider `CCCNC(=O)c1ccc(N2CCN(Cc3ccc(-c4cccc(OCC)c4)c4ccccc34)CC2)cc1` [Compound B1M065-01], for which, under setting [3], the “ASMS ratio (%) n = 1” value came to 0.2%. Moreover, the “ASMS ratio (%) n = 2” value under setting [4] is on record as −6.4%.
On to `CCOc1cncc(-c2ccc(CN3CCN(c4ccc(C(=O)NS(C)(=O)=O)nn4)CC3)c3ccccc23)c1` [Compound B2I092-01, 6-[4-[[4-(5-Ethoxypyridin-3-yl)naphthalen-1-yl]methyl]piperazin-1-yl]-N-methylsulfonylpyridazine-3-carboxamide], for which, under setting [5], the “ASMS ratio (%) n = 1” value is listed as 2.6%. Moreover, the “ASMS ratio (%) n = 2” value under setting [6] worked out at 0.3%.
On the same counts, the results for `CCOc1cncc(-c2cnn(-c3cc(C(=O)N4CCN(c5ccc(C(=O)NS(C)(=O)=O)cc5)CC4)cc(C(F)(F)F)c3)c2)c1` [Compound B2I044-01, 4-[4-[3-[4-(5-Ethoxypyridin-3-yl)pyrazol-1-yl]-5-(trifluoromethyl)benzoyl]piperazin-1-yl]-N-methylsulfonylbenzamide] are 0.0% and 0.0%.
Take `CCOc1cncc(-c2ccc(C(=O)N3CCN(c4ccc(C(=O)NS(=O)(=O)C(C)(C)C)cc4)CC3)c3ccccc23)c1` [Compound B2L036-01, N-tert-Butylsulfonyl-4-[4-[4-(5-ethoxypyridin-3-yl)naphthalene-1-carbonyl]piperazin-1-yl]benzamide]: the “ASMS ratio (%) n = 1” value under setting [5] is listed as 0.0%. Also, the “ASMS ratio (%) n = 2” value under setting [6] was found to be 0.0%.
Regarding `CCOc1cncc(-c2cc(C(=O)N3CCN(c4ccc(C(=O)NS(=O)(=O)C(C)(C)C)cc4)CC3)cc(C(C)(C)C)c2)c1` [Compound B2L038-01, 4-[4-[3-tert-Butyl-5-(5-ethoxypyridin-3-yl)benzoyl]piperazin-1-yl]-N-tert-butylsulfonylbenzamide], under setting [5], the “ASMS ratio (%) n = 1” value stood at 0.0%. Further, the “ASMS ratio (%) n = 2” value under setting [6] amounted to 0.0%.
In the case of `CCOc1cncc(-c2csc(CN3CCN(c4ccc(C(=O)NS(=O)(=O)CCC(F)(F)F)nn4)CC3)c2)c1` [Compound B2N094-01, 6-[4-[[4-(5-Ethoxypyridin-3-yl)thiophen-2-yl]methyl]piperazin-1-yl]-N-(3,3,3-trifluoropropylsulfonyl)pyridazine-3-carboxamide], the “ASMS ratio (%) n = 1” value under setting [1] is listed as 0.0%. Besides, under setting [2], the “ASMS ratio (%) n = 2” value is recorded as 0.0%.
Turning to `CCOc1cncc(-c2cc(CN3CCN(c4ccc(C(=O)NS(=O)(=O)C(C)(C)C)nn4)CC3)cc(C(F)(F)F)c2)c1` [Compound B2L088-01], the “ASMS ratio (%) n = 1” value under setting [1] is given as 0.0%. The “ASMS ratio (%) n = 2” value under setting [2] was 2.8%.
For “6-[4-[[2-(5-Ethoxypyridin-3-yl)phenyl]methyl]piperazin-1-yl]-N-propylpyridazine-3-carboxamide [Compound B1M043-01]”, the “ASMS ratio (%) n = 1” value under setting [3] is given as 2.2%.
For the compound `CCOc1cncc(-c2ccc(CN3CCN(c4ccc(C(=O)NS(=O)(=O)CCC(F)(F)F)cc4)CC3)c3ccccc23)c1` [Compound B2N066-01, 4-[4-[[4-(5-Ethoxypyridin-3-yl)naphthalen-1-yl]methyl]piperazin-1-yl]-N-(3,3,3-trifluoropropylsulfonyl)benzamide], the “ASMS ratio (%) n = 1” value under setting [1] is on record as 0.0%. Moreover, the “ASMS ratio (%) n = 2” value under setting [2] is listed as 0.0%.
In the case of `CCOc1cncc(-c2cc(C(=O)N3CCN(c4ccc(C(=O)NS(=O)(=O)CCC(F)(F)F)cc4)CC3)cc(C(F)(F)F)c2)c1` [Compound B2N040-01, 4-[4-[3-(5-Ethoxypyridin-3-yl)-5-(trifluoromethyl)benzoyl]piperazin-1-yl]-N-(3,3,3-trifluoropropylsulfonyl)benzamide], the “ASMS ratio (%) n = 1” value under setting [1] is recorded as 0.0%. The “ASMS ratio (%) n = 2” value under setting [2] came out at 0.0%.
For `CCOc1cccc(C#Cc2cncc(C(=O)N3CCN(c4ccc(C(=O)NS(=O)(=O)CCC(F)(F)F)cc4)CC3)c2)c1` [Compound B2N031-01, 4-[4-[5-[2-(3-Ethoxyphenyl)ethynyl]pyridine-3-carbonyl]piperazin-1-yl]-N-(3,3,3-trifluoropropylsulfonyl)benzamide], under setting [1], the “ASMS ratio (%) n = 1” value is listed as 0.0%. Further, the “ASMS ratio (%) n = 2” value under setting [2] is 0.0%.
For `CCOc1cccc(-c2cc(CN3CCN(c4ccc(C(=O)NS(=O)(=O)c5ccc(NCCSc6ccccc6)c(C(F)(F)F)c5)nn4)CC3)cc(C(F)(F)F)c2)c1` [Compound B2R087-01], the “ASMS ratio (%) n = 1” value under setting [1] worked out at 3.8%. Further, the “ASMS ratio (%) n = 2” value under setting [2] is listed as 7.1%.
As to `CCOc1cncc(-c2cc(CN3CCN(c4ccc(C(=O)NS(=O)(=O)c5ccc(NCCSc6ccccc6)c(C(F)(F)F)c5)cc4)CC3)cc(C(F)(F)F)c2)c1` [Compound B2R062-01, 4-[4-[[3-(5-Ethoxypyridin-3-yl)-5-(trifluoromethyl)phenyl]methyl]piperazin-1-yl]-N-[4-(2-phenylsulfanylethylamino)-3-(trifluoromethyl)phenyl]sulfonylbenzamide], under setting [1], the “ASMS ratio (%) n = 1” value came out at 0.0%. For the same compound, under setting [2], the “ASMS ratio (%) n = 2” value is 0.0%.
Turning to `CCCNC(=O)c1ccc(N2CCN(C(=O)c3ccc(-c4cccc(OCC)c4)c(F)c3)CC2)cc1` [Compound B1M027-01], under setting [3], the “ASMS ratio (%) n = 1” value came out at 1.0%. In addition, the “ASMS ratio (%) n = 2” value under setting [4] is recorded as 0.4%.
Turning to `CCOc1cccc(C#Cc2ccccc2C(=O)N2CCN(c3ccc(C(=O)NS(=O)(=O)c4ccc(NCCSc5ccccc5)c(C(F)(F)F)c4)cc3)CC2)c1` [Compound B2R029-01, 4-[4-[2-[2-(3-Ethoxyphenyl)ethynyl]benzoyl]piperazin-1-yl]-N-[4-(2-phenylsulfanylethylamino)-3-(trifluoromethyl)phenyl]sulfonylbenzamide], the “ASMS ratio (%) n = 2” value under setting [2] is 0.0%.
As to `CCOc1cncc(-c2ccc(CN3CCN(c4ccc(C(=O)NS(=O)(=O)C(C)(C)C)nn4)CC3)cc2F)c1` [Compound B2L078-01, N-tert-Butylsulfonyl-6-[4-[[4-(5-ethoxypyridin-3-yl)-3-fluorophenyl]methyl]piperazin-1-yl]pyridazine-3-carboxamide], under setting [5], the “ASMS ratio (%) n = 1” value is listed as 1.1%. The “ASMS ratio (%) n = 2” value under setting [6] is −0.7%.
For `CCOc1cccc(-c2cc(CN3CCN(c4ccc(C(=O)NS(C)(=O)=O)nn4)CC3)cc(OC(C)C)c2)c1` [Compound B2I083-01, 6-[4-[[3-(3-Ethoxyphenyl)-5-propan-2-yloxyphenyl]methyl]piperazin-1-yl]-N-methylsulfonylpyridazine-3-carboxamide], in that order: 0.0% and 0.0%.
As to `CCOc1cccc(-c2cc(CN3CCN(c4ccc(C(=O)NS(=O)(=O)C(C)(C)C)nn4)CC3)cc(OCC)c2)c1` [Compound B2L081-01, N-tert-Butylsulfonyl-6-[4-[3-ethoxy-5-(3-ethoxyphenyl)phenyl]methyl]piperazin-1-yllpyridazine-3-carboxamide], the “ASMS ratio (%) n = 1” value under setting [1] was found to be 0.0%. The “ASMS ratio (%) n = 2” value under setting [2] stood at 0.0%.
As to `CCOc1cncc(-c2csc(CN3CCN(c4ccc(C(=O)NS(=O)(=O)C(C)(C)C)cc4)CC3)c2)c1` [Compound B2L068-01], the “ASMS ratio (%) n = 1” value under setting [5] is on record as 0.0%. For the same compound, the “ASMS ratio (%) n = 2” value under setting [6] stood at 0.0%.
In the case of `CCOc1cccc(-c2ccc(C(=O)N3CCN(c4ccc(C(=O)NS(=O)(=O)CCC(F)(F)F)nn4)CC3)c3ccccc23)c1` [Compound B2N013-01, 6-[4-[4-(3-Ethoxyphenyl)naphthalene-1-carbonyl]piperazin-1-yl]-N-(3,3,3-trifluoropropylsulfonyl)pyridazine-3-carboxamide], the “ASMS ratio (%) n = 1” value under setting [1] turned out to be 0.0%. The “ASMS ratio (%) n = 2” value under setting [2] is on record as 0.0%.
Consider `CCOc1cccc(-c2ccc(CN3CCN(c4ccc(C(=O)NS(=O)(=O)c5ccc(NCCSc6ccccc6)c(C(F)(F)F)c5)cc4)CC3)cc2F)c1` [Compound B2R051-01, 4-[4-[[4-(3-Ethoxyphenyl)-3-fluorophenyl]methyl]piperazin-1-yl]-N-[4-(2-phenylsulfanylethylamino)-3-(trifluoromethyl)phenyl]sulfonylbenzamide], for which the “ASMS ratio (%) n = 1” value under setting [1] is 12.7%. In addition, the “ASMS ratio (%) n = 2” value under setting [2] is −1.8%.
For the compound `CCOc1cncc(-c2ccc(CN3CCN(c4ccc(C(=O)NS(C)(=O)=O)cc4)CC3)c(CC)c2)c1` [Compound B2I050-01, 4-[4-[[4-(5-Ethoxypyridin-3-yl)-2-ethylphenyl]methyl]piperazin-1-yl]-N-methylsulfonylbenzamide], the “ASMS ratio (%) n = 1” value under setting [5] stood at 0.0%. The “ASMS ratio (%) n = 2” value under setting [6] is reported as −1.5%.
Take `CCOc1cccc(C#Cc2ccccc2CN2CCN(c3ccc(C(=O)NS(=O)(=O)C(C)(C)C)nn3)CC2)c1` [Compound B2L095-01]: the “ASMS ratio (%) n = 1” value under setting [1] came to 0.0%. Under setting [2], the “ASMS ratio (%) n = 2” value came to 0.0%.
